Data on 3 molecules can be found in patent US7452906B2, “Pyridine derivatives as Raf kinase inhibitors” (SmithKline Beecham P.L.C., priority 2001, dated 2008).

Where only a bound is given, the exact number is not on record here.

The test system of assay [1] is colon carcinoma (Colo 205). Briefly: Methylene Blue Growth Inhibition Assay (Assay 2), Colo205. It counts as cell-based. The following applies: Homo sapiens, COLO 205, 72 h, colorectal cancer, B-Raf V599E, Ras wt, 3 days. The protocol:
(§1) Methylene Blue Growth Inhibition Assay (Assay 2)
(§2) Normal human foreskin fibroblasts (HFF), human melanoma (A375P, SKMEL2, SKMEL3) colon carcinoma (Colo 205) were cultured in the following growth media: A375P, Colo 205, Roswell Park Memorial Institute (RPMI) 1640 (Life Technologies 22400-089) containing 10% fetal bovine serum (FBS); HFF, Dulbecco's modified Eagle Medium (DMEM) (Life Technologies 12320-032) containing 10% FBS; SKMEL2 and SKMEL3, Minimum Essential Medium (MEM, Life Technologies 11095-080) containing 1× non-essential amino acids (Life Technologies 11140-050) and 10% FBS. Cells were harvested using 0.25% trypsin/1 mM, EDTA, counted using a haemocytometer, and plated in 100 microliters of the appropriate media, at the following densities, in a 96-well tissue culture plate Falcon 3075): HFF and A375P, 5,000 cells/well; all other cell lines, 10,000 cells/well. The next day, compounds were diluted in RPMI containing 100 micrograms/ml gentamicin, at twice the final required concentration, from 10 mM stock solutions in dimethyl sulphoxide (DMSO). One hundred microliters per well of these dilutions were added to the 100 microliters of media currently on the cell plates. RPMI containing 0.6% DMSO was added to control wells. […]. The final concentration of DMSO in all wells was 0.3%. Cells were incubated at 37° C., 5% CO2 for 3 days. Medium was removed by aspiration. Cell biomass was estimated by staining cells with 90 μl per well methylene blue (Sigma M9140, 0.5% in 50:50 ethanol:water) and incubation at room temperature for at least 30 minutes. Stain was removed, the plates rinsed by immersion in deionized water and air-dried. To release stain from the cells 100 μl of solubilization solution was added (1% N-lauroyl sarcosine, sodium salt, Sigma L5125, in phosphate-buffered saline solution (PBS)), and plates were incubated at room temperature for 30 minutes. Optical density at 620 nm was measured on a microplate reader. Percent inhibition of cell growth was calculated relative to vehicle treated control wells. […]

The subject of assay [2] is human colon carcinoma (Colo 201) cells. Kind of assay: XTT 72 hr Growth Inhibition (Assay 3), Colo201. Type of assay: cell-based. The following applies: colorectal cancer, B-Raf and Ras status ND. The method, then: (§3) XTT 72 hr Growth Inhibition Protocol for Mammalian Cultured Cells (Assay 3)
(§4) Human diploid foreskin fibroblasts (HFF) or human colon carcinoma (Colo 201) cells were grown in Dulbecco's modified Eagle's medium (DMEM) (Invitrogen/Life Technologies) containing 10% fetal bovine serum (FBS) and the antibiotics penicillin (100 Units/ml) and streotomycin (100 micrograms/ml) (Invitrogen/Life Technologies). Growth was at 37° C. in humidified 5% CO2 incubators in 75 cm^2 plastic flasks. Cells were harvested using 0.25% trypsin/1 mM ethylenediaminetetraacetic acid (EDTA), resuspended in growth medium, and counted using a hemocytometer. Flat-bottomed 96-well plates were seeded with 2×10^3 cells/well in a volume of 200 ul from trypsinized exponentially growing cultures. To “blank” wells, growth medium was added with no additions. Cells were incubated overnight to permit attachment.
(§5) Next day, medium from wells that contained cells was replaced with 180 microliters of fresh medium. Appropriate dilutions of test compounds were added to the wells from stock soloutions of compound dissolved in dimethyl sulfoxide DMSO); final DMSO concentration in all wells was 0.2%. Cells plus compound were incubated for an additional 72 hr at 37° C. under normal growth conditions. Cells were then assayed for viability using standard XTT/PMS*. Fifty microliters of XTT/PMS solution was added to each well and plates were incubated for 90 minutes at 37° C. Absorbance at 450 nm was then determined using a 96-well UV plate reader (Molecular Devices). Under these conditions, absorbance of untreated control cells at 450 nm was at least 1.0 optical density unit/ml. […] It was equal to 100×(A450 test well/A450 untreated control well), the A450s being averages of triplicate determinations. […]
On the technique in general: Tetrazolium dyes change colour on reduction, which living cells bring about.

Assay [3] relates to Human diploid foreskin fibroblasts (HFF). Briefly: XTT 72 hr Growth Inhibition (Assay 3), HFF. Particulars: Fibroblast, normal, B-Raf wt, Ras wt. Type of assay: cell-based. The protocol:
as §3, §4, §5

The subject of another assay is human melanoma SKMEL3. Briefly: Methylene Blue Growth Inhibition Assay (Assay 2), SKMEL3. Type of assay: cell-based. The following applies: SK-MEL3, 72 h, B-Raf V599E, Ras wt, 3 days. The method, then: as §1, §2
The next assay has as its system human melanoma SKMEL2. Kind of assay: Methylene Blue Growth Inhibition Assay (Assay 2), SKMEL2. Type of assay: cell-based. The following applies: SK-MEL-2, 72 h, B-Raf wt, [Q61R]N-Ras, 3 days. The method, then: as §1, §2
A further assay relates to human melanoma A375P. Briefly: Methylene Blue Growth Inhibition Assay (Assay 2), A375P. It counts as cell-based. The following applies: 72 h, B-Raf V599E, Ras wt, 3 days. The protocol:
as §1, §2

In assay [4] the target is T1, human recombinant B-Raf protein (Homo sapiens, UniProt P15056).
T1 construct: made in house; host or cells: Sf9 insect cells (baculovirus)
Briefly: Raf Kinase Assay (Assay 1): incorporation of radiolabelled phosphate into GST-kdMEK. Type of assay: biochemical. Particulars: head: Assay 1.
Description: Activity of human recombinant B-Raf protein was assessed in vitro by assay of the incorporation of radiolabelled phosphate to recombinant MAP kinase kinase (MEK), a known physiologic substrate of B-Raf. Catalytically active human recombinant B-Raf protein was obtained by purification from Sf9 insect cells infected with a human B-Raf recombinant baculovirus expression vector.
Method: Standard assay conditions of B-Raf catalytic activity utilised 3 ug of GST-kdMEK, 10 uM ATP and 2uCi ^33P-ATP, 50 mM MOPS, 0.1 mM EDTA, 0.1M sucrose, 10 mM MgCl2 plus 0.1% dimethylsulphoxide (containing compound where appropriate) in a total reaction volume of 30 ul. Reactions were incubated at 25° C. for 90 minutes and reactions terminated by addition of ethylenediaminetetraacetic acid (EDTA) to a final concentration of 50 uM. 10 ul of reaction was spotted to P81 phosphocellulose paper and air dried. Following four washes in ice cold 10% trichloroacetic acid, 0.5% phosphoric acid, papers were air dried prior to addition of liquid scintillant and measurement of radioactvity in a scintillation counter.

T1 sequence (P15056 whole entry): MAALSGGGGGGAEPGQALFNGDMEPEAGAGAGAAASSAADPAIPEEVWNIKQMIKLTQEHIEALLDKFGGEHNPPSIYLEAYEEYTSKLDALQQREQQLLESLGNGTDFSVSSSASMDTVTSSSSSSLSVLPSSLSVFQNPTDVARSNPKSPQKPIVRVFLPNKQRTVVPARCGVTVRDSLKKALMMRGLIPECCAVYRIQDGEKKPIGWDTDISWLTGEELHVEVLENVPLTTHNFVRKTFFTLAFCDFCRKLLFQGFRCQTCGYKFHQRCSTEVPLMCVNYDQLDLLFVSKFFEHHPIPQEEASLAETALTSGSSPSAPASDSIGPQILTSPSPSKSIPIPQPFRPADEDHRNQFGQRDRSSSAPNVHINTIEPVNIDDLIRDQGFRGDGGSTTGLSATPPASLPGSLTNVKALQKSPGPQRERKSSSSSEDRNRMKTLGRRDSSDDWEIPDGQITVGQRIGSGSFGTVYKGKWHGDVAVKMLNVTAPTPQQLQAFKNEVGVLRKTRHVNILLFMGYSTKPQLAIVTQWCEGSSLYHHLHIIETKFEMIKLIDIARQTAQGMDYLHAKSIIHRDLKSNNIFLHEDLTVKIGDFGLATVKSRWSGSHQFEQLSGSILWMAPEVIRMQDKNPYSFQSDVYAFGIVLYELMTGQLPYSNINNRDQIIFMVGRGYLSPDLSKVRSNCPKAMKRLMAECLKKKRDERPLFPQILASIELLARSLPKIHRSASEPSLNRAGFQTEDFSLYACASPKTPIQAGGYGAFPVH

One may read the IC50 as the concentration needed to halve the response being measured. Higher therefore signals weaker potency. For `ON=C1CCc2cc(-c3cc(C4CCNCC4)oc3-c3ccncc3)ccc21` [Example 31, 5-(5-Piperidin-4-yl-2-pyridin-4-yl-furan-3-yl)-indan-1-one oxime], the IC50 in assay [1] is 10 nM; in assay [2], 10 nM; in assay [3], 21000 nM; in the assay on human melanoma SKMEL3, 650 nM; with human melanoma SKMEL2, 170 nM; in the assay with human melanoma A375P, 43 nM.

What is called Kd is the equilibrium constant for the complex coming apart. Turning to `O=S1(=O)CCN(Cc2cc(-c3ccc4c(c3)CCC4=NO)c(-c3ccncc3)o2)CC1` [Example 5, 5-[5-(1,1-Dioxo-1-thiomorpholin-4-ylmethyl)-2-pyridin-4-yl-furan-3-yl]-indan-1-one oxime], the IC50 was 230 nM in assay [1]; 890 nM in assay [2]; above 30000 nM in assay [3]; 5400 nM in the assay with human melanoma SKMEL3; 2500 nM in the assay with human melanoma SKMEL2; 600 nM with human melanoma A375P. The Kd in assay [4] is 3.6 nM.

Consider `ON=C1CCc2cc(-c3cc(CN4CCOCC4)oc3-c3ccncc3)ccc21` [Example 1, 5-(5-Morpholin-4-ylmethyl-2-pyridin-4-yl-furan-3-yl)-indan-1-one oxime], for which the IC50 in assay [1] was 750 nM; in assay [2], 490 nM; in assay [3] it was above 30000 nM; in the assay on human melanoma SKMEL3 it was 5300 nM; in the assay with human melanoma SKMEL2, 4200 nM; with human melanoma A375P it was 1300 nM.
